Data as given in ChEMBL document CHEMBL1909046, “DrugMatrix in vitro pharmacology data”.

Molecular target: C-C chemokine receptor type 5 (Homo sapiens, UniProt P51681); further: in other assays of this panel Not Active means under 50% inhibition at 10 µM
Format: cell membranes, Membrane
Details: hek293

C-C chemokine receptor type 5, sequence (P51681 whole entry): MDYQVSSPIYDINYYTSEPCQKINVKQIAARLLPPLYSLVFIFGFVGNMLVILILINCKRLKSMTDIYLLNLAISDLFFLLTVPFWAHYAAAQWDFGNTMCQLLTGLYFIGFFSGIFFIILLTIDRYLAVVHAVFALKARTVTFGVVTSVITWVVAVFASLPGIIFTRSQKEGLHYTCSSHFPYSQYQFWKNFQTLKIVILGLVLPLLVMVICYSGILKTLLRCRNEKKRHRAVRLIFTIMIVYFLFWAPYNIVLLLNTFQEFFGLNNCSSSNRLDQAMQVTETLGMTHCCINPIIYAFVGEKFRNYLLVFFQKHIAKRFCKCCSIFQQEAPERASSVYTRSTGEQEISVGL

| Compound | IC50 |
| --- | --- |
| OC(CCCN1CCCCC1)(c1ccccc1)c1ccccc1 [DIPHENIDOL] | Not Active |
| C[C@H]1O[C@@H](n2cc(F)c(=O)[nH]c2=O)[C@H](O)[C@@H]1O [DOXIFLURIDINE] | Not Active |
| Cn1c(=O)c2c(ncn2CC(O)CO)n(C)c1=O (centres undefined) [DYPHYLLINE] | Not Active |
| CC[C@H]1CN2CCc3cc(OC)c(OC)cc3[C@@H]2C[C@@H]1C[C@H]1NCCc2cc(OC)c(OC)cc21 [EMETINE] | Not Active |
| C[C@@H](CO)NC(=O)[C@@H]1C=C2c3cccc4[nH]cc(c34)C[C@H]2N(C)C1 [ERGONOVINE] | Not Active |
| COC(=O)CCc1ccc(OCC(O)CNC(C)C)cc1 (centres undefined) [ESMOLOL] | Not Active |
| CCC1(C)CC(=O)NC1=O (centres undefined) [ETHOSUXIMIDE] | Not Active |
| C#C[C@]1(OC(C)=O)CC[C@H]2[C@@H]3CCC4=C[C@@H](OC(C)=O)CC[C@@H]4[C@H]3CC[C@@]21C [ETHYNODIOL DIACETATE] | Not Active |

Molecular target: Platelet-activating factor receptor (Homo sapiens, UniProt P25105); further: in other assays of this panel Not Active means under 50% inhibition at 10 µM
Sequence (P25105 whole entry): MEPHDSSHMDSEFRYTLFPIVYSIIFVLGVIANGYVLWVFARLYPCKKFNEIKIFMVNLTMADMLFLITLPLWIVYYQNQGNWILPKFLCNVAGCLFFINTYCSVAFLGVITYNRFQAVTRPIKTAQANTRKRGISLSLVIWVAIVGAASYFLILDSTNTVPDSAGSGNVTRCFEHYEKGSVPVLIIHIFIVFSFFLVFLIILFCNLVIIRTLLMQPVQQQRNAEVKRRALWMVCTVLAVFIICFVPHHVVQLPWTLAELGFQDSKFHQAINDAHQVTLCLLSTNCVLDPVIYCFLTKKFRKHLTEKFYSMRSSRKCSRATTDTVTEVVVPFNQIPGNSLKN
Format: tissue-based
Details: not given

| Compound | IC50 |
| --- | --- |
| OC(CCCN1CCCCC1)(c1ccccc1)c1ccccc1 [DIPHENIDOL] | Not Active |
| C[C@H]1O[C@@H](n2cc(F)c(=O)[nH]c2=O)[C@H](O)[C@@H]1O [DOXIFLURIDINE] | Not Active |
| Cn1c(=O)c2c(ncn2CC(O)CO)n(C)c1=O (centres undefined) [DYPHYLLINE] | Not Active |
| CC[C@H]1CN2CCc3cc(OC)c(OC)cc3[C@@H]2C[C@@H]1C[C@H]1NCCc2cc(OC)c(OC)cc21 [EMETINE] | Not Active |
| C[C@@H](CO)NC(=O)[C@@H]1C=C2c3cccc4[nH]cc(c34)C[C@H]2N(C)C1 [ERGONOVINE] | Not Active |
| COC(=O)CCc1ccc(OCC(O)CNC(C)C)cc1 (centres undefined) [ESMOLOL] | Not Active |
| CCC1(C)CC(=O)NC1=O (centres undefined) [ETHOSUXIMIDE] | Not Active |
| C#C[C@]1(OC(C)=O)CC[C@H]2[C@@H]3CCC4=C[C@@H](OC(C)=O)CC[C@@H]4[C@H]3CC[C@@]21C [ETHYNODIOL DIACETATE] | Not Active |

Molecular target: Nitric oxide synthase 1 (Rattus norvegicus, UniProt P29476); further: in other assays of this panel Not Active means under 50% inhibition at 10 µM
Sequence (P29476 whole entry): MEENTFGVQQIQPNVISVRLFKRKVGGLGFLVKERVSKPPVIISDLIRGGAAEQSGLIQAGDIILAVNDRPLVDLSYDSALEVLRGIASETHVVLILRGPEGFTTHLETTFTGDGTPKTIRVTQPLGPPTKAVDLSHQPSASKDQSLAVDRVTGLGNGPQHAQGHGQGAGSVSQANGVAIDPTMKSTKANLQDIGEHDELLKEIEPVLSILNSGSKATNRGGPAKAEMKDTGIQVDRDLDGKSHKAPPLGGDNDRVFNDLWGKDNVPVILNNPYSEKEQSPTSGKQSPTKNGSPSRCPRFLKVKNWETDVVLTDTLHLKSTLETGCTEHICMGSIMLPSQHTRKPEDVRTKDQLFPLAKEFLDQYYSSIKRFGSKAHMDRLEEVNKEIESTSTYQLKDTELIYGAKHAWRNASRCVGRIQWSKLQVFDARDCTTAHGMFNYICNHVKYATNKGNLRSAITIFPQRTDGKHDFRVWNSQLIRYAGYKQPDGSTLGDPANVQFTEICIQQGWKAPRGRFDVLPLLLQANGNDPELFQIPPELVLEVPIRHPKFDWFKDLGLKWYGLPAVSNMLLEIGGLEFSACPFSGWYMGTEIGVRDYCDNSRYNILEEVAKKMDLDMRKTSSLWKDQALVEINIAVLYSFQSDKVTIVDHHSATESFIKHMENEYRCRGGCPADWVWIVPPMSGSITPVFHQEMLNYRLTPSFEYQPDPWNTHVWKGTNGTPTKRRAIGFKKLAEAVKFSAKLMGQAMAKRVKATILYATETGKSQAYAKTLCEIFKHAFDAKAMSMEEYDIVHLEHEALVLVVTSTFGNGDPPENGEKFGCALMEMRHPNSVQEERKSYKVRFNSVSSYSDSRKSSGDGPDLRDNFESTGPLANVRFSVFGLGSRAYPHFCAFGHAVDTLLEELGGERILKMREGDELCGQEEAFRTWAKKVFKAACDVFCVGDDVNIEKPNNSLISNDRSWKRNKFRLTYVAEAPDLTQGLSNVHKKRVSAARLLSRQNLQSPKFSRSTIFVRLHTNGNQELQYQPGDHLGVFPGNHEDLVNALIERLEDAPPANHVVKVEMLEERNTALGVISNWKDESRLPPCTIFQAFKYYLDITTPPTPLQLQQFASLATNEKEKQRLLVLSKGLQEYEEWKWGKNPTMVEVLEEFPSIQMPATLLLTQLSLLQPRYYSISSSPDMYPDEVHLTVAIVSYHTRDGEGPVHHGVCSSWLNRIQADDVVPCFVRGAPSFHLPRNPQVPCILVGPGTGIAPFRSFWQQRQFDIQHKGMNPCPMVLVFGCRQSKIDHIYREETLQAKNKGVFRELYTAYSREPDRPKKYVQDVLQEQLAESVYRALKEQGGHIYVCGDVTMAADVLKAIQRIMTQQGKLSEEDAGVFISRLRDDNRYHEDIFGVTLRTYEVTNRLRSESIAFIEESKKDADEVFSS
Format: tissue-based, Cerebellum
Details: not given

| Compound | IC50 |
| --- | --- |
| OC(CCCN1CCCCC1)(c1ccccc1)c1ccccc1 [DIPHENIDOL] | Not Active |
| C[C@H]1O[C@@H](n2cc(F)c(=O)[nH]c2=O)[C@H](O)[C@@H]1O [DOXIFLURIDINE] | Not Active |
| Cn1c(=O)c2c(ncn2CC(O)CO)n(C)c1=O (centres undefined) [DYPHYLLINE] | Not Active |
| CC[C@H]1CN2CCc3cc(OC)c(OC)cc3[C@@H]2C[C@@H]1C[C@H]1NCCc2cc(OC)c(OC)cc21 [EMETINE] | Not Active |
| C[C@@H](CO)NC(=O)[C@@H]1C=C2c3cccc4[nH]cc(c34)C[C@H]2N(C)C1 [ERGONOVINE] | Not Active |
| COC(=O)CCc1ccc(OCC(O)CNC(C)C)cc1 (centres undefined) [ESMOLOL] | Not Active |
| CCC1(C)CC(=O)NC1=O (centres undefined) [ETHOSUXIMIDE] | Not Active |
| C#C[C@]1(OC(C)=O)CC[C@H]2[C@@H]3CCC4=C[C@@H](OC(C)=O)CC[C@@H]4[C@H]3CC[C@@]21C [ETHYNODIOL DIACETATE] | Not Active |

Molecular target: T1, Leukotriene C4 synthase (Cavia porcellus, UniProt A6XA80);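 further: enzyme inhibition assay of leukotriene C4 synthase, using LTA4 as the substrate; in other assays of this panel Not Active means under 50% inhibition at 10 µM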
T1 sequence (A6XA80 whole entry): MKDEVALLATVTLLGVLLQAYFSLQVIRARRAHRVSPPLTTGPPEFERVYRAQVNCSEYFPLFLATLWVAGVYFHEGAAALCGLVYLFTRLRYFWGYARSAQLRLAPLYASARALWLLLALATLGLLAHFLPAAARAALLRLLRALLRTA
Format: tissue-based, Lung
Details: not given

| Compound | IC50 |
| --- | --- |
| OC(CCCN1CCCCC1)(c1ccccc1)c1ccccc1 [DIPHENIDOL] | Not Active |
| C[C@H]1O[C@@H](n2cc(F)c(=O)[nH]c2=O)[C@H](O)[C@@H]1O [DOXIFLURIDINE] | Not Active |
| Cn1c(=O)c2c(ncn2CC(O)CO)n(C)c1=O (centres undefined) [DYPHYLLINE] | Not Active |
| CC[C@H]1CN2CCc3cc(OC)c(OC)cc3[C@@H]2C[C@@H]1C[C@H]1NCCc2cc(OC)c(OC)cc21 [EMETINE] | Not Active |
| C[C@@H](CO)NC(=O)[C@@H]1C=C2c3cccc4[nH]cc(c34)C[C@H]2N(C)C1 [ERGONOVINE] | Not Active |
| COC(=O)CCc1ccc(OCC(O)CNC(C)C)cc1 (centres undefined) [ESMOLOL] | Not Active |
| CCC1(C)CC(=O)NC1=O (centres undefined) [ETHOSUXIMIDE] | Not Active |
| C#C[C@]1(OC(C)=O)CC[C@H]2[C@@H]3CCC4=C[C@@H](OC(C)=O)CC[C@@H]4[C@H]3CC[C@@]21C [ETHYNODIOL DIACETATE] | Not Active |

System: not listed separately
Assay: DRUGMATRIX: Sodium/nucleoside co-transporter radioligand binding (ligand: nitrobenzylthioinosine)
Format: cell membranes, Cavia porcellus, Dunkin-Hartley, Cerebral cortex, Membrane
Details: Not Active = under 50% inhibition at 10 µM

| Compound | IC50 | Ki |
| --- | --- | --- |
| OC(CCCN1CCCCC1)(c1ccccc1)c1ccccc1 [DIPHENIDOL] | Not Active | Not Active |
| C[C@H]1O[C@@H](n2cc(F)c(=O)[nH]c2=O)[C@H](O)[C@@H]1O [DOXIFLURIDINE] | Not Active | Not Active |
| Cn1c(=O)c2c(ncn2CC(O)CO)n(C)c1=O (centres undefined) [DYPHYLLINE] | Not Active | Not Active |
| CC[C@H]1CN2CCc3cc(OC)c(OC)cc3[C@@H]2C[C@@H]1C[C@H]1NCCc2cc(OC)c(OC)cc21 [EMETINE] | Not Active | Not Active |
| C[C@@H](CO)NC(=O)[C@@H]1C=C2c3cccc4[nH]cc(c34)C[C@H]2N(C)C1 [ERGONOVINE] | Not Active | Not Active |
| COC(=O)CCc1ccc(OCC(O)CNC(C)C)cc1 (centres undefined) [ESMOLOL] | Not Active | Not Active |
| CCC1(C)CC(=O)NC1=O (centres undefined) [ETHOSUXIMIDE] | Not Active | Not Active |
| C#C[C@]1(OC(C)=O)CC[C@H]2[C@@H]3CCC4=C[C@@H](OC(C)=O)CC[C@@H]4[C@H]3CC[C@@]21C [ETHYNODIOL DIACETATE] | Not Active | Not Active |

Molecular target: C-C chemokine receptor type 2 (Homo sapiens, UniProt P41597); further: in other assays of this panel Not Active means under 50% inhibition at 10 µM
Sequence (P41597 whole entry): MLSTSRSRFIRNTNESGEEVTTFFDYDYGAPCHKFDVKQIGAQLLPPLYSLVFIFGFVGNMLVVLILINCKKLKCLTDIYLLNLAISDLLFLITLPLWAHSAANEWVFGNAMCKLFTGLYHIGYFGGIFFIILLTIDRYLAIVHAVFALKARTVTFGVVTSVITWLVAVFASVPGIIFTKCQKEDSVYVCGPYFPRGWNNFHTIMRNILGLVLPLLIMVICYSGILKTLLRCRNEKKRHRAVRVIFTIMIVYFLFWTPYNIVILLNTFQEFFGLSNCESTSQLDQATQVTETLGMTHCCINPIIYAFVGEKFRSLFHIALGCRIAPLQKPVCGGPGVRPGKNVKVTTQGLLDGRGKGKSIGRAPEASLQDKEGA
Format: cell membranes, Membrane
Details: cho-k1

| Compound | IC50 |
| --- | --- |
| OC(CCCN1CCCCC1)(c1ccccc1)c1ccccc1 [DIPHENIDOL] | Not Active |
| C[C@H]1O[C@@H](n2cc(F)c(=O)[nH]c2=O)[C@H](O)[C@@H]1O [DOXIFLURIDINE] | Not Active |
| Cn1c(=O)c2c(ncn2CC(O)CO)n(C)c1=O (centres undefined) [DYPHYLLINE] | Not Active |
| CC[C@H]1CN2CCc3cc(OC)c(OC)cc3[C@@H]2C[C@@H]1C[C@H]1NCCc2cc(OC)c(OC)cc21 [EMETINE] | Not Active |
| C[C@@H](CO)NC(=O)[C@@H]1C=C2c3cccc4[nH]cc(c34)C[C@H]2N(C)C1 [ERGONOVINE] | Not Active |
| COC(=O)CCc1ccc(OCC(O)CNC(C)C)cc1 (centres undefined) [ESMOLOL] | Not Active |
| CCC1(C)CC(=O)NC1=O (centres undefined) [ETHOSUXIMIDE] | Not Active |
| C#C[C@]1(OC(C)=O)CC[C@H]2[C@@H]3CCC4=C[C@@H](OC(C)=O)CC[C@@H]4[C@H]3CC[C@@]21C [ETHYNODIOL DIACETATE] | Not Active |

Molecular target: Delta-type opioid receptor (Homo sapiens, UniProt P41143); further: in other assays of this panel Not Active means under 50% inhibition at 10 µM
Sequence (P41143 whole entry): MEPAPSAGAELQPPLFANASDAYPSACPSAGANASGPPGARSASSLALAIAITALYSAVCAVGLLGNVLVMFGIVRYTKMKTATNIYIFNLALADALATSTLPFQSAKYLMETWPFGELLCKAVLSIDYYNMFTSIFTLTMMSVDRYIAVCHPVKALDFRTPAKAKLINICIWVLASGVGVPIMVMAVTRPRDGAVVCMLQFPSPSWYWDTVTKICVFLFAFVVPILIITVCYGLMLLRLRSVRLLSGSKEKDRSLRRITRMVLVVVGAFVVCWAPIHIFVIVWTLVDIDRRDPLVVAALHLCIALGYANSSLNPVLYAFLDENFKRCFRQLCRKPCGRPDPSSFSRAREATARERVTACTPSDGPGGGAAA
Format: cell membranes, Membrane
Details: hek293

| Compound | IC50 |
| --- | --- |
| OC(CCCN1CCCCC1)(c1ccccc1)c1ccccc1 [DIPHENIDOL] | Not Active |
| C[C@H]1O[C@@H](n2cc(F)c(=O)[nH]c2=O)[C@H](O)[C@@H]1O [DOXIFLURIDINE] | Not Active |
| Cn1c(=O)c2c(ncn2CC(O)CO)n(C)c1=O (centres undefined) [DYPHYLLINE] | Not Active |
| CC[C@H]1CN2CCc3cc(OC)c(OC)cc3[C@@H]2C[C@@H]1C[C@H]1NCCc2cc(OC)c(OC)cc21 [EMETINE] | Not Active |
| C[C@@H](CO)NC(=O)[C@@H]1C=C2c3cccc4[nH]cc(c34)C[C@H]2N(C)C1 [ERGONOVINE] | Not Active |
| COC(=O)CCc1ccc(OCC(O)CNC(C)C)cc1 (centres undefined) [ESMOLOL] | Not Active |
| CCC1(C)CC(=O)NC1=O (centres undefined) [ETHOSUXIMIDE] | Not Active |
| C#C[C@]1(OC(C)=O)CC[C@H]2[C@@H]3CCC4=C[C@@H](OC(C)=O)CC[C@@H]4[C@H]3CC[C@@]21C [ETHYNODIOL DIACETATE] | Not Active |

Molecular target: Beta-1 adrenergic receptor (Homo sapiens, UniProt P08588)
Sequence (P08588 whole entry): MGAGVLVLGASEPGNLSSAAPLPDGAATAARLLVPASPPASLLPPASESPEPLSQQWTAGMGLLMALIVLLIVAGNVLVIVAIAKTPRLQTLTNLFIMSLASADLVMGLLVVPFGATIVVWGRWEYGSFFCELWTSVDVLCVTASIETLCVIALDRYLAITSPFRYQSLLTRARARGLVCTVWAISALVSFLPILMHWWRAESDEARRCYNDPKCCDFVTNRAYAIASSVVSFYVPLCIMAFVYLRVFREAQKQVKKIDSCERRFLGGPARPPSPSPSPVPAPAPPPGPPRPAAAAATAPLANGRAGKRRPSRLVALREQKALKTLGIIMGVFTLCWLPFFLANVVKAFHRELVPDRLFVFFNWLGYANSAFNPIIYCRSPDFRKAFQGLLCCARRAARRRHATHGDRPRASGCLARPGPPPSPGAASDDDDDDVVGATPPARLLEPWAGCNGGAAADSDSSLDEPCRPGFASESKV
Assay: DRUGMATRIX: Adrenergic beta1 radioligand binding (ligand: [125I] Cyanopindolol)
Format: cell membranes, CHO-K1, Membrane
Details: Not Active = under 50% inhibition at 10 µM; read-out: IC50

| Compound | IC50 [nM] |
| --- | --- |
| COC(=O)CCc1ccc(OCC(O)CNC(C)C)cc1 (centres undefined) [ESMOLOL] | 197 |

Same assay, conditions: Not Active = under 50% inhibition at 10 µM; read-out: Ki

| Compound | Ki [nM] |
| --- | --- |
| COC(=O)CCc1ccc(OCC(O)CNC(C)C)cc1 (centres undefined) [ESMOLOL] | 114 |

Same assay, conditions: cho-k1; Not Active = under 50% inhibition at 10 µM

| Compound | IC50 |
| --- | --- |
| OC(CCCN1CCCCC1)(c1ccccc1)c1ccccc1 [DIPHENIDOL] | Not Active |
| C[C@H]1O[C@@H](n2cc(F)c(=O)[nH]c2=O)[C@H](O)[C@@H]1O [DOXIFLURIDINE] | Not Active |
| Cn1c(=O)c2c(ncn2CC(O)CO)n(C)c1=O (centres undefined) [DYPHYLLINE] | Not Active |
| CC[C@H]1CN2CCc3cc(OC)c(OC)cc3[C@@H]2C[C@@H]1C[C@H]1NCCc2cc(OC)c(OC)cc21 [EMETINE] | Not Active |
| C[C@@H](CO)NC(=O)[C@@H]1C=C2c3cccc4[nH]cc(c34)C[C@H]2N(C)C1 [ERGONOVINE] | Not Active |
| CCC1(C)CC(=O)NC1=O (centres undefined) [ETHOSUXIMIDE] | Not Active |
| C#C[C@]1(OC(C)=O)CC[C@H]2[C@@H]3CCC4=C[C@@H](OC(C)=O)CC[C@@H]4[C@H]3CC[C@@]21C [ETHYNODIOL DIACETATE] | Not Active |

System: not listed separately
Assay: DRUGMATRIX: Tumor Necrosis Factor (TNF), Non-Selective radioligand binding (ligand: [125I] TNF-alpha)
Format: cell membranes, Membrane
Details: u-937; Not Active = under 50% inhibition at 10 µM

| Compound | IC50 | Ki |
| --- | --- | --- |
| OC(CCCN1CCCCC1)(c1ccccc1)c1ccccc1 [DIPHENIDOL] | Not Active | Not Active |
| C[C@H]1O[C@@H](n2cc(F)c(=O)[nH]c2=O)[C@H](O)[C@@H]1O [DOXIFLURIDINE] | Not Active | Not Active |
| Cn1c(=O)c2c(ncn2CC(O)CO)n(C)c1=O (centres undefined) [DYPHYLLINE] | Not Active | Not Active |
| CC[C@H]1CN2CCc3cc(OC)c(OC)cc3[C@@H]2C[C@@H]1C[C@H]1NCCc2cc(OC)c(OC)cc21 [EMETINE] | Not Active | Not Active |
| C[C@@H](CO)NC(=O)[C@@H]1C=C2c3cccc4[nH]cc(c34)C[C@H]2N(C)C1 [ERGONOVINE] | Not Active | Not Active |
| COC(=O)CCc1ccc(OCC(O)CNC(C)C)cc1 (centres undefined) [ESMOLOL] | Not Active | Not Active |
| CCC1(C)CC(=O)NC1=O (centres undefined) [ETHOSUXIMIDE] | Not Active | Not Active |
| C#C[C@]1(OC(C)=O)CC[C@H]2[C@@H]3CCC4=C[C@@H](OC(C)=O)CC[C@@H]4[C@H]3CC[C@@]21C [ETHYNODIOL DIACETATE] | Not Active | Not Active |
